The record followed here is ChEMBL document CHEMBL1133222 (2000).

In assay [1] the target is T1, Endothelin-1 receptor (Rattus norvegicus) (UniProt P26684).
T1 sequence (whole entry): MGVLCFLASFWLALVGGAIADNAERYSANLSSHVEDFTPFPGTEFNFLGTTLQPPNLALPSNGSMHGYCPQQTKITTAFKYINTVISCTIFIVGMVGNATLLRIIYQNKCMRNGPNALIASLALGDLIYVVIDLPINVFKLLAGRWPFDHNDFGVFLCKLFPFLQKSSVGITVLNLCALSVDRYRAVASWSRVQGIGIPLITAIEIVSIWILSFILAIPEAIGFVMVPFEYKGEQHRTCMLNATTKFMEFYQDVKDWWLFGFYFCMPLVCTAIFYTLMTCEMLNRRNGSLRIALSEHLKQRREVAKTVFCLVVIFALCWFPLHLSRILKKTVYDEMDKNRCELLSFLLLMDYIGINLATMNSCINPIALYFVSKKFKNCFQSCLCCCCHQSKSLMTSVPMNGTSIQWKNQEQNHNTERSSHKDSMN
Nature of the assay: Inhibition of (125 I)-endothelin 1 binding to endothelin A receptor in rat ventricle.

Assay [2] concerns the target T2, Endothelin receptor type B (Rattus norvegicus) (UniProt P21451).
T2 sequence (whole entry): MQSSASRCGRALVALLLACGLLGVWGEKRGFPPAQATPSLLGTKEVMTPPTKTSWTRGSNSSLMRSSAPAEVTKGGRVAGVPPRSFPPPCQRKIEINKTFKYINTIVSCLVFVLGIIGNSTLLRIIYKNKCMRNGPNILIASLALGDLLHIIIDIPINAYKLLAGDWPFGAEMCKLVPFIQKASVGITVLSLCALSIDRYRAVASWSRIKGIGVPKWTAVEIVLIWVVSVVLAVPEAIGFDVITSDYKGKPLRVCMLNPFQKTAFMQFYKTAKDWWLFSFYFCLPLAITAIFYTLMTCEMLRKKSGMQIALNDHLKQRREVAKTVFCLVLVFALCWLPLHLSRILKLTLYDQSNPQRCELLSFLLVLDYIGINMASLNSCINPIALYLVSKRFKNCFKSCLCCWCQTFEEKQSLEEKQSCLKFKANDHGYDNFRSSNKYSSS
The note with it: Cerebellum.
Description: Inhibition of (125 I)-endothelin 1 binding to endothelin B receptor in rat cerebellum

A further assay relates to Mus musculus. Briefly: Effective dose for ET-1 induced death in mice after peroral administration. The format is functional. The note with it: po.
For the next assay, the system named is Rattus norvegicus. Briefly: Effective dose in rat after intravenous administration. The format is functional.

As to `COC(=O)c1cccc(Cc2c(C(=O)O)n(Cc3cc4c(cc3Cl)OCO4)c3ccccc3c2=O)c1`, the Binding affinity amounted to 8.2 nM in assay [1] and 747 nM in assay [2].
On to `C=Cc1ccc(Cc2c(C(=O)O)n(Cc3cc4c(cc3Cl)OCO4)c3ccccc3c2=O)cc1`, for which the Binding affinity in assay [1] was determined as 5.6 nM; in assay [2], 190 nM.
Take `O=C(O)CCCCCc1c(C(=O)O)n(Cc2cc3c(cc2Cl)OCO3)c2ccccc2c1=O`: the Binding affinity came out at 93 nM in assay [1] and 9500 nM in assay [2].
As for `O=C(O)c1c(Cc2ccco2)c(=O)c2ccccc2n1Cc1cc2c(cc1Cl)OCO2`, the Binding affinity in assay [1] was 5.7 nM; in assay [2], 1890 nM.
With `O=C(O)c1c(Cc2ccc(Br)cc2)c(=O)c2ccccc2n1Cc1cc2c(cc1Cl)OCO2`, the Binding affinity in assay [1] stood at 5.7 nM; in assay [2], 166 nM.
In assay [1], `COc1ccc(Cc2c(C(=O)O)n(Cc3cc(Br)c4c(c3)OCO4)c3ccccc3c2=O)cc1` came in with a Binding affinity of 18.9 nM.
On to `O=C(O)c1c(Cc2ccccc2)c(=O)c2ccccc2n1Cc1cc2c(cc1Cl)OCO2`, for which the Binding affinity in assay [1] turned out to be 4.1 nM; in assay [2] it was 157 nM.
Regarding `CCc1cc2c(cc1Cn1c(C(=O)O)c(Cc3ccc(OC)cc3)c(=O)c3ccccc31)OCO2`, the Binding affinity in assay [1] was 1 nM; in assay [2], 69 nM.
As for `COc1cc(Cc2c(C(=O)O)n(Cc3cc4c(cc3Cl)OCO4)c3ccccc3c2=O)cc(OC)c1OC`, the Binding affinity is 1.9 nM in assay [1] and 789 nM in assay [2].
For the molecule `O=C(O)C[C@H]1CC[C@H](Cc2c(C(=O)O)n(Cc3cc4c(cc3Cl)OCO4)c3ccccc3c2=O)CC1`, the results for the Binding affinity in assay [1] and in assay [2] were 3.4 nM and 6630 nM, respectively.
The like results for `O=C(O)c1cc(=O)c2ccccc2n1Cc1cc2c(cc1Cl)OCO2` were, in that order, 8700 nM and 29000 nM.
For the molecule `C=Cc1cc2c(cc1Cn1c(C(=O)O)c(Cc3ccc(OC)cc3)c(=O)c3ccccc31)OCO2`, the Binding affinity in assay [1] is 1.8 nM; in assay [2] it was 70 nM.
The matching figures for `COc1ccc(Cc2c(C(=O)O)n(Cc3cc4c(cc3Cl)OCO4)c3ccccc3c2=O)cc1`: 1.6 nM and 216 nM.
The matching figures for `O=C(O)c1c(Cc2cccnc2)c(=O)c2ccccc2n1Cc1cc2c(cc1Cl)OCO2`: 20.4 nM and 1600 nM.
The matching figures for `O=C(O)c1c(Cc2ccoc2)c(=O)c2ccccc2n1Cc1cc2c(cc1Cl)OCO2`: 29 nM and 1900 nM.
Take `CCc1cc2c(cc1Cn1c(C(=O)[O-])c(Cc3cccc(C(=O)[O-])c3)c(=O)c3ccccc31)OCO2.[K+].[K+]`: the Binding affinity came to 0.69 nM in assay [1] and 571 nM in assay [2]. In addition, the 50% effective dose (ED50) (commonly the midpoint of the dose-response relation) was 10 mg/kg with Mus musculus and 0.1 mg/kg in the assay with Rattus norvegicus.
Regarding `COc1ccc(Cc2c(C(=O)O)n(Cc3cc(OC)c4c(c3)OCO4)c3ccccc3c2=O)cc1`, the Binding affinity in assay [1] worked out at 9.5 nM; in assay [2], 244 nM.
As to `COc1ccc(Cc2c(C(=O)O)n(Cc3ccc4c(c3)OCO4)c3ccccc3c2=O)cc1`, the figures for the Binding affinity in assay [1] and in assay [2] were 10.7 nM and 606 nM, respectively.
The matching figures for `O=C(O)c1c(CC2CCCCC2)c(=O)c2ccccc2n1Cc1cc2c(cc1Cl)OCO2`: 1.1 nM and 100 nM.
Consider `CCOC(=O)C[C@H]1CC[C@H](Cc2c(C(=O)O)n(Cc3cc4c(cc3Cl)OCO4)c3ccccc3c2=O)CC1`, for which the Binding affinity was found to be 4.7 nM in assay [1] and 5000 nM in assay [2].
The like results for `CCCCc1cn(Cc2ccc(-c3ccccc3C(=O)O)cc2)c2ccc(Cn3ccc4ccccc43)cc2c1=O` were, in that order, 7600 nM and 110000 nM.
Consider `CCCCc1cn(Cc2ccc(-c3ccccc3-n3cnnn3)cc2)c2ccc(CSc3ccccn3)cc2c1=O`, for which the Binding affinity amounted to 11000 nM in assay [1] and 12000 nM in assay [2].
For the molecule `COc1ccc(Cn2c(C(=O)O)c(Cc3ccc4c(c3)OCO4)c(=O)c3ccccc32)cc1`, the figures for the Binding affinity in assay [1] and in assay [2] were 255 nM and 16000 nM, respectively.
Take `COc1ccc(Cc2c(C(=O)O)n(Cc3cc4c(cc3Br)OCO4)c3ccccc3c2=O)cc1`: the Binding affinity in assay [1] is 7.8 nM; in assay [2], 244 nM.
The like results for `O=C(O)c1ccc(Cc2c(C(=O)O)n(Cc3cc4c(cc3Cl)OCO4)c3ccccc3c2=O)cc1` were, in that order, 4.6 nM and 17100 nM.
Turning to `O=C(O)c1cccc(Cc2c(C(=O)O)n(Cc3cc4c(cc3Cl)OCO4)c3ccccc3c2=O)c1`, the Binding affinity worked out at 3 nM in assay [1] and 500 nM in assay [2].
The matching figures for `COc1ccc(Cc2c(C(=O)O)n(Cc3cc4c(cc3Cl)OCO4)c3ccccc3c2=O)c(OCC(=O)O)c1`: 54.3 nM and 549 nM.
Turning to `O=C(O)c1c(Cc2cccc(Cl)c2Cl)c(=O)c2ccccc2n1Cc1cc2c(cc1Cl)OCO2`, the Binding affinity amounted to 10.9 nM in assay [1] and 570 nM in assay [2].
